Reference: ChEMBL document CHEMBL5604063, “ASAP - DENV-2 NS2B-NS3 protease fluorescence dose response” (2024)
Values joined by “and” are separate entries in the source; they are usually repeats but may differ in a detail not shown here. Equal entries are not always repeated.

Key:
Genome polyprotein [1] = target: T1, Genome polyprotein (dengue virus type 2, UniProt P29990); format: functional, Thailand/16681/1984
Genome polyprotein [2] = target: T1, Genome polyprotein; format: functional, Thailand/16681/1984; remark: listed apart in the source

T1 sequence (P29990 1346-1475 limits assumed): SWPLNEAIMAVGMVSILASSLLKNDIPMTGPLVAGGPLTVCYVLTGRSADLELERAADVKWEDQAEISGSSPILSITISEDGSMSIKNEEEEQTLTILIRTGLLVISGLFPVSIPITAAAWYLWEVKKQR
T1 sequence (P29990 1476-2093 limits assumed): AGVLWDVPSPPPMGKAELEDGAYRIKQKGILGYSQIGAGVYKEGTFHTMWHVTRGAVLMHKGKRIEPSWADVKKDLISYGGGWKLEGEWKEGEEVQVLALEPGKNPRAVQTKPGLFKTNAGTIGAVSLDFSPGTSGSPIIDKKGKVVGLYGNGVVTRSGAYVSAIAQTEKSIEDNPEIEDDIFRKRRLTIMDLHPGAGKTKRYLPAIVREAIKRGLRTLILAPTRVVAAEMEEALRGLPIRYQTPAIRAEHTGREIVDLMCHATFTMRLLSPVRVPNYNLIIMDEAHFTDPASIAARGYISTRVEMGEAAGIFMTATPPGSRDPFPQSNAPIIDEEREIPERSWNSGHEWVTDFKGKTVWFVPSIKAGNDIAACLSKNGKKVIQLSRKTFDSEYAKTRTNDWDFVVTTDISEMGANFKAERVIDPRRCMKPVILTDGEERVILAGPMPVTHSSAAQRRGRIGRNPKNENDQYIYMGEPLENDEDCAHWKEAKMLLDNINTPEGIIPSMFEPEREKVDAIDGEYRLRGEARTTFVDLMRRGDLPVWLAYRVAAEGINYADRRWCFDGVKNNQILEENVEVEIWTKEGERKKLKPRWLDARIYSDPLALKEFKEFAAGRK

Row | SMILES | IC50 (Genome polyprotein [1]) [µM] | IC50 (Genome polyprotein [2])
1 | NCc1cc(C(=O)N[C@H]2CCCOC2)cc([C@@H]2C[C@H]2c2cc(Cl)cc(NC(=O)OCc3ccccc3)c2)c1 | > 99.5 | > 100 µM
2 | NCc1cc(C(=O)N2CCNC(=O)C2)cc([C@@H]2C[C@H]2c2cc(Cl)cc(NC(=O)OCc3ccccc3)c2)c1 | 49.1 | > 100 µM
3 | O=C(O)c1cccc(NC(=O)c2cc(Cl)cc3[nH]ncc23)c1 | > 99.5 | > 100 µM
4 | CC(C)NC(=O)[C@H](Nc1cccc(-c2nn[nH]n2)c1)c1cc(Cl)cc(NC(=O)OCc2ccccc2)c1 | 21.5 | 12.2 µM
5 | CN(C)C(=O)c1cc(CN)cc([C@@H]2C[C@H]2c2cc(Cl)cc(NC(=O)OCc3ccccc3)c2)c1 | 31.6 | > 100 µM
6 | CNC(=O)[C@H](Nc1ccc(-c2nnn[nH]2)cc1)c1cc(Cl)cc(C2CC2)c1 | > 99.5 | > 100 µM
7 | CCOC(=O)[C@H]1[C@H](c2cc(Cl)cc(NC(=O)OCc3ccccc3)c2)[C@H]1c1cccc(-c2nnn[nH]2)c1 | 13.1 | 13.9 µM
8 | NCc1cc(/C=C/C(=O)O)cc(NC(=O)c2cc(Cl)cc(NC(=O)OCc3ccccc3)c2)c1 | 94.6 | > 100 µM
9 | CC(C)CNC(=O)[C@H](Nc1cccc(-c2nn[nH]n2)c1)c1cc(Cl)cc(NC(=O)OCc2ccccc2)c1 | 12.7 | 9.91 µM and 9.02 µM
10 | O=C(Nc1cc(Cl)cc([C@H](Nc2cccc(-c3nn[nH]n3)c2)C(=O)N[C@H]2CCOC2)c1)OCc1ccccc1 | 40.3 | 22.9 µM
11 | CCCn1cc(-c2cc(Cl)cc(NC(=O)OCc3ccccc3)c2)c(C(=O)O)n1 | > 99.5 | > 100 µM
12 | N#C[C@H](Nc1cccc(-c2nn[nH]n2)c1)c1cc(Cl)cc2[nH]ncc12 | > 99.5 | 88.3 µM
13 | Clc1cc([C@@H]2C[C@H]2c2cccc(-c3nn[nH]n3)c2)c2cn[nH]c2c1 | 66.2 | 20.4 µM and 23.8 µM
14 | O=C(Nc1cccc(-n2nn[nH]c2=O)c1)c1cc(Cl)cc(C2CC2)c1 | 98.7 | 50.1 µM
15 | N#C[C@H](Nc1ccc2c(c1)CNC2)c1cc(Cl)cc2[nH]ncc12 | > 99.5 | > 100 µM
16 | O=C(Nc1cc(Cl)cc([C@H](Nc2cccc(-c3nn[nH]n3)c2)C(=O)NC[C@H]2CCCO2)c1)OCc1ccccc1 | 33.7 | 17.6 µM
17 | O=C(Nc1cc(Cl)cc([C@H]2C[C@@H]2c2cccc(-c3nnn[nH]3)c2)c1)OCc1ccccc1 | 16.2 | 19.1 µM
18 | N#C[C@H](Nc1ccc(CCC(=O)O)cn1)c1cc(Cl)cc(C2CC2)c1 | > 99.5 | > 100 µM
19 | NCc1cc(CO)cc([C@H]2C[C@@H]2c2cc(Cl)cc(NC(=O)OCc3ccccc3)c2)c1 | 29.7 | > 100 µM
20 | O=C(Nc1cc(Cl)cc(C(=O)N2CCC(C(=O)O)CC2)c1)OCc1ccccc1 | > 99.5 | > 100 µM
21 | O=C(Nc1cc(Cl)cc([C@H](Nc2cccc(-c3nn[nH]n3)c2)C(=O)NC2CCOCC2)c1)OCc1ccccc1 | 40.6 | 13.2 µM and 19.9 µM

Row | SMILES | IC50 (Genome polyprotein [1]) [µM] | IC50 (Genome polyprotein [2])
22 | O=C(Nc1cc(Cl)cc(-c2ccn3c(C(=O)O)cnc3c2)c1)OCc1ccccc1 | > 99.5 | 13.6 µM
23 | O=C(Nc1cc(Cl)cc(-c2ccc3[nH]nc(C(=O)O)c3c2)c1)OCc1ccccc1 | 9.15 | 6.27 µM and 5 µM
24 | O=C(O)c1cccc(CCc2cc(Cl)cc3[nH]ncc23)c1 | > 99.5 | > 100 µM
25 | O=C(Nc1cc(Cl)cc(CNc2cccc(-c3nn[nH]n3)c2)c1)OCc1ccccc1 | 11.6 | 8.36 µM and 5.15 µM
26 | OCC#C[C@H](Nc1ccc(-c2nnn[nH]2)cc1)c1cc(Cl)cc(C2CC2)c1 | > 99.5 | 40.8 µM
27 | O=C(Nc1cc(Cl)cc(-c2ccc3cc(C(=O)O)[nH]c3c2)c1)OCc1ccccc1 | 7.42 | 7.4 µM and 4.18 µM
28 | NCc1cc(NC(=O)c2cc(Cl)cc(NC(=O)OCc3ccccc3)c2)cc([C@@H]2C[C@H]2C(=O)O)c1 | > 99.5 | > 100 µM
29 | O=C(Nc1cc(Cl)cc(-c2ccc3nc(C(=O)O)ncc3c2)c1)OCc1ccccc1 | 11.4 | 11.6 µM and 12.4 µM
30 | NCc1ccc(C(=O)O)c(NC(=O)c2cc(Cl)cc(NC(=O)OCc3ccccc3)c2)c1 | > 99.5 | > 100 µM
31 | CC(C)CNC(=O)[C@H](Nc1cccc(-c2nnn[nH]2)c1)c1cc(Cl)cc(C2CC2)c1 | 74.4 | 47.3 µM
32 | N#Cc1cc(CN)cc([C@H]2C[C@@H]2c2cc(Cl)cc(NC(=O)OCc3ccccc3)c2)c1 | > 99.5 | > 100 µM
33 | O=C(Nc1cc(Cl)cc(C(=O)N2CCC[C@H]2C(=O)O)c1)OCc1ccccc1 | > 99.5 | > 100 µM
34 | O=C(Nc1cc(Cl)cc(C(=O)NC2(c3nnn[nH]3)CC2)c1)OCc1ccccc1 | > 99.5 | > 100 µM
35 | CC(=Cc1cccc(CN)c1)c1cc(Cl)cc(NC(=O)OCc2ccccc2)c1 | 63.2 | > 100 µM
36 | C[C@@]1(c2cccc(CN)c2)C[C@H]1c1cc(Cl)cc(NC(=O)OCc2ccccc2)c1 | 17.5 | > 100 µM
37 | O=C(Nc1cc(Cl)cc([C@H]2Nc3ccc(-c4nn[nH]n4)cc3[C@H]3OCCC[C@@H]23)c1)OCc1ccccc1 | > 99.5 | > 100 µM
38 | Cc1c(C(=O)Nc2cccc(-c3nnn[nH]3)c2)cnn1-c1ccc(Cl)cc1 | > 99.5 | > 100 µM
39 | NCc1cccc([C@H](C#CCO)Nc2cc(Cl)cc(NC(=O)OCc3ccccc3)c2)c1 | 64.9 | > 100 µM
40 | O=C(Nc1cc(Cl)cc(-c2cnn3ccc(C(=O)O)cc23)c1)OCc1ccccc1 | > 99.5 | > 100 µM
41 | Clc1cccc([C@H](C#Cc2ccccc2)Nc2cccc(-c3nn[nH]n3)c2)c1 | 7.71 | 6.31 µM and 4.12 µM
42 | CNC(=O)c1cc(CN)cc([C@@H]2C[C@H]2c2cc(Cl)cc(NC(=O)OCc3ccccc3)c2)c1 | 29.6 | > 100 µM

Row | SMILES | IC50 (Genome polyprotein [1]) [µM] | IC50 (Genome polyprotein [2])
43 | O=C(Nc1cc(Cl)cc(C(=O)Nc2cc(C(=O)O)ccn2)c1)OCc1ccccc1 | > 99.5 | 35.6 µM
44 | CNC(=O)[C@H](Nc1cc(Cl)cc(NC(=O)OCc2ccccc2)c1)c1ccc(-c2nn[nH]n2)cc1 | 45.6 | 19.2 µM
45 | COCCNC(=O)[C@H](Nc1cccc(-c2nn[nH]n2)c1)c1cc(Cl)cc(NC(=O)OCc2ccccc2)c1 | 59.8 | 28 µM
46 | CC(=Cc1cccc(-c2nnn[nH]2)c1)c1cc(Cl)cc(NC(=O)OCc2ccccc2)c1 | 9.44 | 8.82 µM and 11.8 µM
47 | O=C(O)C[C@H]1CCCN1C(=O)c1cc(Cl)cc(NC(=O)OCc2ccccc2)c1 | > 99.5 | > 100 µM
48 | CNC(=O)[C@H](Nc1cncc(C(=O)O)c1)c1cc(Cl)cc(C2CC2)c1 | > 99.5 | > 100 µM
49 | O=C(Nc1cc(Cl)cc(-c2cccc3c(C(=O)O)cccc23)c1)OCc1ccccc1 | 9.78 | 7.51 µM
50 | NCc1cc(Br)cc([C@H]2C[C@@H]2c2cc(Cl)cc(NC(=O)OCc3ccccc3)c2)c1 | 16.1 | 33.5 µM
51 | C[C@H](C(=O)O)N(C)C(=O)c1cc(Cl)cc(NC(=O)OCc2ccccc2)c1 | > 99.5 | > 100 µM
52 | CN(C)CCNC(=O)[C@H](Nc1cccc(-c2nn[nH]n2)c1)c1cc(Cl)cc(NC(=O)OCc2ccccc2)c1 | 97.3 | 47.2 µM and 67.4 µM and > 100 µM
53 | CNC(=O)[C@H](Nc1cccc(-c2nnn[nH]2)c1)c1cc(Cl)cc(C2CC2)c1 | > 99.5 | > 100 µM
54 | O=C(Nc1cc(Cl)cc(N[C@H](C#CCO)c2ccc(-c3nn[nH]n3)cc2)c1)OCc1ccccc1 | 26.4 | 11.7 µM
55 | CN(C)C(=O)Nc1cccc([C@@H]2C[C@H]2c2cc(Cl)cc(NC(=O)OCc3ccccc3)c2)c1 | > 99.5 | > 100 µM
56 | CNC(=O)[C@H](Nc1cc(CN)cc(C(=O)O)c1)c1cc(Cl)cc(NC(=O)OCc2ccccc2)c1 | > 99.5 | > 100 µM
57 | CNC(=O)[C@H](Nc1ccc(-c2nn[nH]n2)cc1)c1cc(Cl)cc(NC(=O)OCc2ccccc2)c1 | 50 | 40.7 µM
58 | CC(C)[C@H](CC(=O)O)NC(=O)c1cc(Cl)cc(NC(=O)OCc2ccccc2)c1 | > 99.5 | > 100 µM
59 | N#C[C@H](Nc1ccc(CC(=O)O)cn1)c1cc(Cl)cc(C2CC2)c1 | > 99.5 | > 100 µM
60 | CNC(=O)[C@H](Nc1cc(CN)cc(-c2nn[nH]n2)c1)c1cc(Cl)cc(C2CC2)c1 | > 99.5 | > 100 µM
61 | O=C(Nc1cc(Cl)cc(C(=O)Nc2ccnc(C(=O)O)c2)c1)OCc1ccccc1 | 66.9 | > 100 µM
62 | O=C(Nc1cc(Cl)cc(C(=O)N2CC[C@H](C(=O)O)C2)c1)OCc1ccccc1 | > 99.5 | > 100 µM
